From patent US20010046987A1, “Oxazolidinones having a sulfoximine functionality” (priority 1999, published 2001)
Values after ≈ are worked out from the molar mass of the structure shown.

Assays:
Assay type in all cases: cell-based
[1] = system: Enterococcus faecium; assay: MIC by agar dilution, EFAE 12712; conditions: for Antibacterial Activity Minimum Inhibitory Concentration EFAE 12712: strain EFAE 12712; for MIC: Enterococcus faecium, strain EFAE 12712, read-out: Antibacterial Activity Minimum Inhibitory Concentration EFAE 12712
Text: (§1) The in vitro activity of compounds of this invention can be assessed by standard testing procedures such as the determination of minimum inhibitory concentration (MIC) by agar dilution as described in “Approved Standard.

[2] = system: Streptococcus pneumoniae; assay: MIC by agar dilution, SPNE 9912; conditions: for Antibacterial Activity Minimum Inhibitory Concentration SPNE 9912: strain SPNE 9912; for MIC: Streptococcus pneumoniae, strain SPNE 9912, read-out: Antibacterial Activity Minimum Inhibitory Concentration SPNE 9912
Text: as §1

[3] = system: H. influenzae; assay: MIC by agar dilution, HINF 30063; conditions: for Antibacterial Activity Minimum Inhibitory Concentration HINF 30063: strain HINF 30063; for MIC: Haemophilus influenzae, strain HINF 30063, read-out: Antibacterial Activity Minimum Inhibitory Concentration HINF 30063
Text: as §1

[4] = system: Streptococcus pyogenes; assay: MIC by agar dilution, SPYO 152; conditions: for Antibacterial Activity Minimum Inhibitory Concentration SPYO 152: strain SPYO 152; for MIC: Streptococcus pyogenes, strain SPYO 152, read-out: Antibacterial Activity Minimum Inhibitory Concentration SPYO 152
Text: as §1

[5] = system: Enterococcus faecalis; assay: MIC by agar dilution, EFAE 9217; conditions: for Antibacterial Activity Minimum Inhibitory Concentration EFAE 9217: strain EFAE 9217; for MIC: Enterococcus faecalis, strain EFAE 9217, read-out: Antibacterial Activity Minimum Inhibitory Concentration EFAE 9217
Text: as §1

[6] = system: Moraxella catarrhalis; assay: MIC by agar dilution, MCAT 30607; conditions: for Antibacterial Activity Minimum Inhibitory Concentration MCAT 30607: strain MCAT 30607; for MIC: Moraxella catarrhalis, strain MCAT 30607, read-out: Antibacterial Activity Minimum Inhibitory Concentration MCAT 30607
Text: as §1

[7] = system: Staphylococcus epidermidis; assay: MIC by agar dilution, SEPI 30593; conditions: for Antibacterial Activity Minimum Inhibitory Concentration SEPI 30593: strain SEPI 30593; for MIC: Staphylococcus epidermidis, strain SEPI 30593, read-out: Antibacterial Activity Minimum Inhibitory Concentration SEPI 30593
Text: as §1

[8] = system: Staphylococcus aureus; assay: MIC by agar dilution, SAUR 9213; conditions: for Antibacterial Activity Minimum Inhibitory Concentration SAUR 9213: strain SAUR 9213; for MIC: Staphylococcus aureus, strain SAUR 9213, read-out: Antibacterial Activity Minimum Inhibitory Concentration SAUR 9213
Text: as §1

MIC [1]	MIC [2]	MIC [3]	MIC [4]	MIC [5]	MIC [6]	MIC [7]	MIC [8]	Structure (SMILES)	Antibacterial Activity Minimum Inhibitory Concentration EFAE 12712 [1]	Antibacterial Activity Minimum Inhibitory Concentration SPNE 9912 [2]	Antibacterial Activity Minimum Inhibitory Concentration HINF 30063 [3]	Antibacterial Activity Minimum Inhibitory Concentration SPYO 152 [4]	Antibacterial Activity Minimum Inhibitory Concentration EFAE 9217 [5]	Antibacterial Activity Minimum Inhibitory Concentration MCAT 30607 [6]	Antibacterial Activity Minimum Inhibitory Concentration SEPI 30593 [7]	Antibacterial Activity Minimum Inhibitory Concentration SAUR 9213 [8]
–	–	–	–	–	–	–	–	CC(=S)NC[C@H]1CN(c2ccc(C3CCS(=N)(=O)CC3)c(F)c2)C(=O)O1 (single isomer, unassigned) [Example 9]	0.5 µg/mL	0.25 µg/mL	2 µg/mL	0.25 µg/mL	0.5 µg/mL	2 µg/mL	0.125 µg/mL	0.5 µg/mL
–	–	–	–	–	–	–	–	CC(=O)NC[C@H]1CN(c2ccc(C3CCS(=N)(=O)CC3)c(F)c2)C(=O)O1 (single isomer, unassigned) [Example 4]	4 µg/mL	1 µg/mL	8 µg/mL	1 µg/mL	2 µg/mL	4 µg/mL	2 µg/mL	16 µg/mL
2 µg/mL (≈ 4.68 µM)	0.5 µg/mL (≈ 1.17 µM)	8 µg/mL (≈ 18.7 µM)	1 µg/mL (≈ 2.34 µM)	2 µg/mL (≈ 4.68 µM)	8 µg/mL (≈ 18.7 µM)	1 µg/mL (≈ 2.34 µM)	4 µg/mL (≈ 9.36 µM)	CCC(=S)NCC1CN(c2ccc(C3CC[S+2]([O-])([N-]C)CC3)c(F)c2)C(=O)O1 [Example 32, N-[((5S)-3-{3-Fluoro-4-[1-(methylimino)-1-oxidohexahydro-1λ^4-thiopyran-4-yl]phenyl}-2-oxo-1,3-oxazolidin-5-yl)methyl]propanethioamide, E-isomer]	–	–	–	–	–	–	–	–
–	–	–	–	–	–	–	–	CC(=O)NC[C@H]1CN(c2ccc(C3CCS(=N)(=O)CC3)c(F)c2)C(=O)O1 (single isomer, unassigned) [Example 8]	2 µg/mL	0.5 µg/mL	8 µg/mL	1 µg/mL	2 µg/mL	2 µg/mL	1 µg/mL	8 µg/mL
–	–	–	–	–	–	–	–	CCC(=S)NC[C@H]1CN(c2ccc(C3CCS(=O)(=NCCO)CC3)c(F)c2)C(=O)O1 (single isomer, unassigned) [Example 24]	1 µg/mL	0.25 µg/mL	4 µg/mL	0.5 µg/mL	1 µg/mL	4 µg/mL	0.5 µg/mL	2 µg/mL
–	–	–	–	–	–	–	–	CCC(=S)NC[C@H]1CN(c2ccc(C3CCS(=O)(=NC(C)=O)CC3)c(F)c2)C(=O)O1 (single isomer, unassigned) [Example 14]	1 µg/mL	0.25 µg/mL	4 µg/mL	0.25 µg/mL	0.5 µg/mL	2 µg/mL	0.5 µg/mL	1 µg/mL
–	–	–	–	–	–	–	–	CC(=O)N=S1(=O)CCN(c2ccc(N3C[C@H](CNC(C)=O)OC3=O)cc2F)CC1 [PREP 2, N-({(5S)-3-[3-Fluoro-4-(1-acetylimino-1-oxido-1λ^4,4-thiazinan-4-yl)phenyl]-2-oxo-1,3-oxazolidin-5-yl}methyl)acetamide]	4 µg/mL	1 µg/mL	32 µg/mL	2 µg/mL	2 µg/mL	8 µg/mL	2 µg/mL	16 µg/mL
–	–	–	–	–	–	–	–	N=S1(=O)CCC(c2ccc(N3C[C@H](CNC(=S)C4CC4)OC3=O)cc2F)CC1 (single isomer, unassigned) [Example 11]	0.5 µg/mL	0.25 µg/mL	4 µg/mL	0.25 µg/mL	0.5 µg/mL	1 µg/mL	0.5 µg/mL	1 µg/mL
–	–	–	–	–	–	–	–	CCC(=S)NC[C@H]1CN(c2ccc(N3CCS(=O)(=NC(=O)OC)CC3)c(F)c2)C(=O)O1 [Example 27, N-[((5S)-3-{3-Fluoro-4-(1-[(methoxycarbonyl)imino]-1-oxido-1λ^4,4-thiazinan-4-yl)phenyl}-2-oxo-1,3-oxazolidin-5-yl)methyl]propanethioamide]	0.5 µg/mL	0.125 µg/mL	4 µg/mL	0.5 µg/mL	0.5 µg/mL	8 µg/mL	0.5 µg/mL	2 µg/mL
–	–	–	–	–	–	–	–	CN=S1(=O)CCN(c2ccc(N3C[C@H](CNC(C)=O)OC3=O)cc2F)CC1 [PREP 3, N-({(5S)-3-[3-Fluoro-4-(1-methylimino-1-oxido-1λ^4,4-thiazinan-4-yl)phenyl]-2-oxo-1,3-oxazolidin-5-yl}methyl)acetamide]	4 µg/mL	1 µg/mL	16 µg/mL	2 µg/mL	4 µg/mL	8 µg/mL	2 µg/mL	16 µg/mL
1 µg/mL (≈ 2.27 µM)	0.25 µg/mL (≈ 0.567 µM)	4 µg/mL (≈ 9.08 µM)	0.5 µg/mL (≈ 1.13 µM)	0.5 µg/mL (≈ 1.13 µM)	2 µg/mL (≈ 4.54 µM)	0.5 µg/mL (≈ 1.13 µM)	2 µg/mL (≈ 4.54 µM)	CN=S1(=O)CCN(c2ccc(N3C[C@H](CNC(=S)C4CC4)OC3=O)cc2F)CC1 [Example 26, N-[((5S)-3-{3-Fluoro-4-[1-(methylimino)-1-oxido-1λ^4,4-thiazinan-4-yl]phenyl}-2-oxo-1,3-oxazolidin-5-yl)methyl]cyclopropanecarbothioamide]	–	–	–	–	–	–	–	–
1 µg/mL (≈ 2.33 µM)	0.25 µg/mL (≈ 0.583 µM)	4 µg/mL (≈ 9.33 µM)	0.5 µg/mL (≈ 1.17 µM)	1 µg/mL (≈ 2.33 µM)	4 µg/mL (≈ 9.33 µM)	0.5 µg/mL (≈ 1.17 µM)	2 µg/mL (≈ 4.67 µM)	CCC(=S)NC[C@H]1CN(c2ccc(N3CCS(=O)(=NC)CC3)c(F)c2)C(=O)O1 [Example 25, N-[((5S)-3-{3-Fluoro-4-[1-(methylimino)-1-oxido-1λ^4,4-thiazinan-4-yl]phenyl}-2-oxo-1,3-oxazolidin-5-yl)methyl]propanethioamide]	–	–	–	–	–	–	–	–
1 µg/mL (≈ 2.34 µM)	0.25 µg/mL (≈ 0.585 µM)	8 µg/mL (≈ 18.7 µM)	0.25 µg/mL (≈ 0.585 µM)	0.5 µg/mL (≈ 1.17 µM)	2 µg/mL (≈ 4.68 µM)	0.5 µg/mL (≈ 1.17 µM)	1 µg/mL (≈ 2.34 µM)	CCC(=S)NC[C@H]1CN(c2ccc([C@H]3CC[S@+2]([O-])([N-]C)CC3)c(F)c2)C(=O)O1 [Example 13, N-({(5S)-3-[3-Fluoro-4-[1-(methylimino)-1-oxidohexahydro-1λ^4-thiopyran-4-yl]phenyl]-2-oxo-1,3-oxazolidin-5-yl}methyl)propanethioamide, Z-isomer]	–	–	–	–	–	–	–	–
–	–	–	–	–	–	–	–	CCOC(=O)CN=S1(=O)CCC(c2ccc(N3C[C@H](CNC(=S)CC)OC3=O)cc2F)CC1 (single isomer, unassigned) [Example 20]	1 µg/mL	4 µg/mL	8 µg/mL	16 µg/mL	1 µg/mL	4 µg/mL	1 µg/mL	2 µg/mL
